Measurements from paper PMC4865847, “Putative histidine kinase inhibitors with antibacterial effect against multi-drug resistant clinical isolates identified by in vitro and in silico screens” (Scientific Reports, 2016).
In brackets after ≈: the same amount, converted by molar mass. Like-named read-outs stand apart in the source and are kept apart here.

Columns and labels:
E. coli = system: E. coli; parameters: method as in PMID 25561178; conditions: cited from earlier work
E. coli PhoR (PhoR^E) = target: T1, E. coli PhoR (PhoR^E) (Escherichia coli, UniProt P08400); assay: In vitro autophosphorylation kinase assay with γ-32P-ATP, PhoR^E; type: biochemical; conditions: autophosphorylation, one time point (30 sec), 10% DMSO; read-out: IC50 PhoR^E
T1 construct: The catalytic portion (DHp and CA domain) of E. coli PhoR (PhoR^E); made in house; host or cells: E. coli RIL
Summary of the method: (§1)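 Histidine kinase (0.12 mg/ml, ≈4 μM) incubated with up to 20 mM fragment in 50 mM Tris HCl pH 8.5, 50 mM KCl, 5 mM MgCl2, 0.5 mM EDTA, 0.1 mM DTT; started with 0.1 μCi/μl γ-32P-ATP (0.03–0.06 μM ATP final). Phosphoprotein quantified by SDS-PAGE and phosphor-imaging, curve-fitted; DMSO controls.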

S. pneumoniae WalK = target: T2, S. pneumoniae WalK (Streptococcus pneumoniae, UniProt Q8DPL8); assay: In vitro autophosphorylation kinase assay with γ-32P-ATP, WalK; type: biochemical; conditions: autophosphorylation, one time point (30 sec), 10% DMSO; read-out: IC50 WalK
T2 construct: WalK (amino acids from 208 to 449); N-terminal His6-3C site of vector pOPINF (own knowledge of the vector); made in house; host or cells: E. coli RIL
Summary of the method: as §1

Staphylococcus aureus = assay: Antibacterial susceptibility testing (MIC/MBC), S. aureus; type: cell-based; conditions: Staphylococcus aureus
Procedure: (§2) Minimal inhibitory concentrations (MICs) were determined following a standard double-dilution method. […] For S. pneumoniae MICs were determined by adapting the standard double-dilution method to anaerobic conditions and of this microorganism (use of Todd Hewitt Yeast extract with 200 U/mL of catalase and continuous monitoring of growth).

[1] = system: Staphylococcus epidermidis; assay: Antibacterial susceptibility testing (MIC/MBC), S. epidermidis; type: cell-based; conditions: Staphylococcus epidermidis
Procedure: as §2

Escherichia coli = assay: Antibacterial susceptibility testing (MIC/MBC), E. coli; type: cell-based; conditions: Escherichia coli
Procedure: as §2

Streptococcus suis = assay: Antibacterial susceptibility testing (MIC), S. suis; type: cell-based
Procedure: (§3) Bacterial strains used in this study for antibacterial susceptibility testing (Table S5) were propagated using standard microbiological procedures. Minimal inhibitory concentrations (MICs) were determined following a standard double-dilution method. MICs were recorded as the lowest concentration of the compound where no visible growth was observed. After plating the dilutions around the MIC or growing them in fresh MH media, minimal bactericidal concentration (MBC) was recorded as the lowest concentration of the compound at which no colonies were formed or no growth was observed, respectively. For S. pneumoniae MICs were determined by adapting the standard double-dilution method to anaerobic conditions and of this microorganism (use of Todd Hewitt Yeast extract with 200 U/mL of catalase and continuous monitoring of growth).

Streptococcus pneumoniae = assay: Antibacterial susceptibility testing (MIC), S. pneumoniae; type: cell-based; conditions: strain 49619
Procedure: as §3

Acinetobacter baumannii = assay: Antibacterial susceptibility testing (MIC), A. baumannii; type: cell-based
Procedure: as §3

[2] = system: Stenotrophomonas maltophilia; assay: Antibacterial susceptibility testing (MIC), S. maltophilia; type: cell-based
Procedure: as §3

Klebsiella pneumoniae = assay: Antibacterial susceptibility testing (MIC), K. pneumoniae; type: cell-based; conditions: Klebsiella pneumoniae, ATCC700603, strain ATCC 700603
Procedure: as §3

Pseudomonas aeruginosa = assay: Antibacterial susceptibility testing (MIC), P. aeruginosa; type: cell-based; conditions: Pseudomonas aeruginosa, ATCC27853; strain ATCC 27853
Procedure: as §3

Hemolysis assay = type: cell-based; conditions: human
Procedure: Hemolytic activity against human erythrocytes taken from a healthy donor was measured as previously described. The hemolysis experiments were carried out in accordance with the guidelines of the United Arab Emirates University (UAEU) Research Ethics Review Board. All experimental protocols were approved by the Research Ethics Review Board of UAEU and informed consent was obtained from all donors.

S. pneumoniae VicK = system: S. pneumoniae VicK; parameters: method as in PMID 25531939; conditions: cited from earlier work
[3] = system: Gram-positive B. subtilis; parameters: method as in PMID 25531939; conditions: cited from earlier work
[4] = system: Gram negative E. coli DC2; parameters: method as in PMID 25531939; conditions: cited from earlier work

T1 sequence (P08400 210-425): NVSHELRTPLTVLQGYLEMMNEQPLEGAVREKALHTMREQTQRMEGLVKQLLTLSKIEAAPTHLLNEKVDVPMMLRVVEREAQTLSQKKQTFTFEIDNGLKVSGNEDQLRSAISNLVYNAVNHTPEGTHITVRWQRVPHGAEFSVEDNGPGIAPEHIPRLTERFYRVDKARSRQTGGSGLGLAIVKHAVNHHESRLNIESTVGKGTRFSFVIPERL
T2 sequence (Q8DPL8 208-449): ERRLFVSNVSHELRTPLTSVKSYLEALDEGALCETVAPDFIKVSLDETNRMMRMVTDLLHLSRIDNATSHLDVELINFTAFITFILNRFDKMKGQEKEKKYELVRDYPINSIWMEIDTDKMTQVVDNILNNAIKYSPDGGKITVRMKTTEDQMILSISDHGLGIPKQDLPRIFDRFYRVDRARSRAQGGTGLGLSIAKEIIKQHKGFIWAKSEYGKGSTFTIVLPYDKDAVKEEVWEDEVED

For teixobactin, the “antibacterial effect (MIC) against E. coli” value (E. coli) is listed as 2 to 25 µg/mL.

`CC(C)NCC(O)COc1cccc2[nH]c3ccccc3c12` (centres unmarked) [F2.4] gave an IC50 (E. coli PhoR (PhoR^E)) of over 2000 µM, an IC50 (S. pneumoniae WalK) of over 2000 µM and an MIC (Staphylococcus aureus; ATCC reference strain 25293, read-out: MIC S. aureus 25293) of 125 µg/mL (≈ 419 µM). It also gave an MBC (Staphylococcus aureus; DSM20231, strain DSM 20231, read-out: MBC S. aureus DSM 20231) of 250 µg/mL (≈ 838 µM), an MIC (Staphylococcus aureus; MRSA clinical isolate 127/08, read-out: MIC S. aureus 127/08) of 500 µg/mL (≈ 1680 µM) and an MIC (Staphylococcus aureus; MRSA clinical isolate 145/08, read-out: MIC S. aureus 145/08) of 250 µg/mL (≈ 838 µM). The MIC (Staphylococcus aureus; MRSA clinical isolate 274/08, read-out: MIC S. aureus 274/08) was 500 µg/mL (≈ 1680 µM), the MIC (Staphylococcus aureus; MRSA, MRSA clinical isolate S908, read-out: MIC S. aureus S908) was 500 µg/mL (≈ 1680 µM) and the MIC (Staphylococcus aureus; MRSA, MRSA clinical isolate T4/6, read-out: MIC S. aureus T4/6) was over 500 µg/mL. It also gave an MIC (Staphylococcus aureus; MRSA, MRSA clinical isolate V4180, read-out: MIC S. aureus V4180) of 500 µg/mL (≈ 1680 µM), an MIC (Staphylococcus aureus; MRSA, summary over strains, read-out: MICs for the MRSA strains and S. aureus 25293) of 125 to 500 µg/mL (≈ 419 to 1680 µM) and an MBC ([1]; DSM20044, strain DSM 20044) of 500 µg/mL (≈ 1680 µM). It also gave an MIC ([1]; strain RP62A (biofilm producer), read-out: MIC S. epidermidis RP62A) of over 500 µg/mL, an MIC (Escherichia coli; ATCC25276, strain ATCC 25276, read-out: MIC E. coli ATCC 25276) of 500 µg/mL (≈ 1680 µM) and an MBC (Escherichia coli; strain CFT 073, read-out: MBC E. coli CFT 073) of 500 µg/mL (≈ 1680 µM). The MIC (Escherichia coli; strain CFT 073, read-out: MIC E. coli CFT 073) was 500 µg/mL (≈ 1680 µM), the MIC (Streptococcus suis; Streptococcus suis, read-out: MIC Streptococcus suis 3881/S10, strain 3881/S10) was 125 µg/mL (≈ 419 µM) and the “MIC Streptococcus suis 3881/S10” value (Streptococcus suis; strain 3881/S10) was 250 µg/mL (≈ 838 µM). For the same molecule, the MIC (Streptococcus pneumoniae) was 64 µg/mL (≈ 214 µM), the MIC (Acinetobacter baumannii; MDR clinical isolate NM8, read-out: MIC A. baumannii NM8) was 500 µg/mL (≈ 1680 µM) and the MIC (Acinetobacter baumannii; MDR clinical isolate NM35, read-out: MIC A. baumannii NM35) was over 500 µg/mL. The MIC (Acinetobacter baumannii; MDR clinical isolate NM75, read-out: MIC A. baumannii NM75) was over 500 µg/mL, the MIC (Acinetobacter baumannii; MDR clinical isolate NM109, read-out: MIC A. baumannii NM109) was 500 µg/mL (≈ 1680 µM) and the MIC (Acinetobacter baumannii; MDR clinical isolate NM124, read-out: MIC A. baumannii NM124) was 500 µg/mL (≈ 1680 µM). The MIC (Acinetobacter baumannii; summary over strains, read-out: MICs for A. baumannii strains) was 500 µg/mL (≈ 1680 µM), the MIC ([2]; clinical isolate B5/5, read-out: MIC S. maltophilia B5/5) was over 500 µg/mL and the MIC ([2]; clinical isolate B6/2, read-out: MIC S. maltophilia B6/2) was 500 µg/mL (≈ 1680 µM). The MIC ([2]; clinical isolate B32/1, read-out: MIC S. maltophilia B32/1) was 500 µg/mL (≈ 1680 µM), the MIC ([2]; summary over strains, read-out: MICs for S. maltophilia strains) was 500 µg/mL (≈ 1680 µM) and the MIC (Klebsiella pneumoniae) was over 500 µg/mL. For the same molecule, the MIC (Pseudomonas aeruginosa) was over 500 µg/mL and the HC50 (Hemolysis assay) was over 500 µg/mL.

For `Nc1nc2ccc(Oc3ccc4nc(N)sc4c3)cc2s1` [Compound 11], the IC50 (S. pneumoniae VicK) is listed as 75 µM, the “MIC Gram positive” value [3] is listed as at least 49 µg/mL and the “MICs for the Gram-positive B. subtilis” value [3] is listed as 49 to 64 µg/mL. For the same molecule, the “MIC Gram negative” value [4] was at least 32 µg/mL and the “MICs for the Gram negative E. coli DC2” value [4] was 32 to 64 µg/mL.
